1 compound from ChEMBL document CHEMBL5252515, “Discovery of 6-Amino-2-{[(1S)-1-methylbutyl]oxy}-9-[5-(1-piperidinyl)pentyl]-7,9-dihydro-8H-purin-8-one (GSK2245035), a Highly Potent and Selective Intranasal Toll-Like Receptor 7 Agonist for the Treatment of Asthma” (J Med Chem, 2016) can be followed below.

The term EC50 denotes the concentration giving half of the maximal effect. The solubility is the dissolved amount per volume that the medium holds.

Structures are written as SMILES. ≈ marks a conversion by molar mass, not a printed value.

In data set [1] the target is T1, Toll-like receptor 7 (Macaca fascicularis) (UniProt B3Y652).
T1 sequence (whole entry): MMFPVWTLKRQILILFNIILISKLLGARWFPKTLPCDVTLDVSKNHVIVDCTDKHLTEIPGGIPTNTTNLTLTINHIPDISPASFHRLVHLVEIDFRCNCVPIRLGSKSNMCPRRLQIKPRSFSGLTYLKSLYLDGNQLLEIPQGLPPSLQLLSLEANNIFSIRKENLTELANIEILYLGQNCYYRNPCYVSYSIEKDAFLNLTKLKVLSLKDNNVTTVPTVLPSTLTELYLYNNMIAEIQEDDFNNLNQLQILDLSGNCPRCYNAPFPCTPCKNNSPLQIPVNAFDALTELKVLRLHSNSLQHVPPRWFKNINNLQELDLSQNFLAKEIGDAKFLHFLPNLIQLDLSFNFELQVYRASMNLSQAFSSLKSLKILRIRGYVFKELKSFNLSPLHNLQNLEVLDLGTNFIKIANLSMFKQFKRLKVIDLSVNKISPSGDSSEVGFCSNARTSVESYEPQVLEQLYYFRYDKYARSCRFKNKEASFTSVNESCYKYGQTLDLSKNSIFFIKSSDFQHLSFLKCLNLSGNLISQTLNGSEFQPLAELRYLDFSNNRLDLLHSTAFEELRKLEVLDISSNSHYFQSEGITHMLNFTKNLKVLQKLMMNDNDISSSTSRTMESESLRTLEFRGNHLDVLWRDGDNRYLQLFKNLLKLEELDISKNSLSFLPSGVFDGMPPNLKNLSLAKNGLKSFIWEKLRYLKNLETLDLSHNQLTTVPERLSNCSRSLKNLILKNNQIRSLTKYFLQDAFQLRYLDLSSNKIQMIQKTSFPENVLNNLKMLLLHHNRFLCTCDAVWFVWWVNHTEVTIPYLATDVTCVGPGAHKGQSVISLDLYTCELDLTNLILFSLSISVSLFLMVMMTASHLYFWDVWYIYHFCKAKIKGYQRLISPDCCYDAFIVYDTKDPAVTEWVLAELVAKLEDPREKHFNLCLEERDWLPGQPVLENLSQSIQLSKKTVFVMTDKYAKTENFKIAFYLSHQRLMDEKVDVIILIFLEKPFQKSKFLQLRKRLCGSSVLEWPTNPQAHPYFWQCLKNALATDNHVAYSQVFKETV
Put plainly: In vivo target occupancy at TLR7 in cynomolgus monkey assessed as fold increase in OAS1 mRNA expression in nasal scrape at 3 ng/kg administered intranasally incubated for 24 hrs by TaqMan analysis (reference value: 1.2). The format is functional. (In qPCR the cycle at which signal appears reflects the starting amount.)

Data set [2] can be described thus: Toxicity in mouse assessed as dermal irritancy at 1000 ug/ml administered intranasally after 4 hrs. The conditions noted are these: in vivo, inhaled_or_intranasal, dose 1000 µg/ml.
A short description of data set [3]: Selectivity ratio of pEC50 for agonist activity at TLR7 in human whole blood to pEC50 for agonist activity at TLR7 in BALB/c mouse splenocytes. The data set is classed as cell-based.
A further data set addresses T2, Toll-like receptor 7 (Homo sapiens, UniProt Q9NYK1).
T2 sequence (Q9NYK1 whole entry): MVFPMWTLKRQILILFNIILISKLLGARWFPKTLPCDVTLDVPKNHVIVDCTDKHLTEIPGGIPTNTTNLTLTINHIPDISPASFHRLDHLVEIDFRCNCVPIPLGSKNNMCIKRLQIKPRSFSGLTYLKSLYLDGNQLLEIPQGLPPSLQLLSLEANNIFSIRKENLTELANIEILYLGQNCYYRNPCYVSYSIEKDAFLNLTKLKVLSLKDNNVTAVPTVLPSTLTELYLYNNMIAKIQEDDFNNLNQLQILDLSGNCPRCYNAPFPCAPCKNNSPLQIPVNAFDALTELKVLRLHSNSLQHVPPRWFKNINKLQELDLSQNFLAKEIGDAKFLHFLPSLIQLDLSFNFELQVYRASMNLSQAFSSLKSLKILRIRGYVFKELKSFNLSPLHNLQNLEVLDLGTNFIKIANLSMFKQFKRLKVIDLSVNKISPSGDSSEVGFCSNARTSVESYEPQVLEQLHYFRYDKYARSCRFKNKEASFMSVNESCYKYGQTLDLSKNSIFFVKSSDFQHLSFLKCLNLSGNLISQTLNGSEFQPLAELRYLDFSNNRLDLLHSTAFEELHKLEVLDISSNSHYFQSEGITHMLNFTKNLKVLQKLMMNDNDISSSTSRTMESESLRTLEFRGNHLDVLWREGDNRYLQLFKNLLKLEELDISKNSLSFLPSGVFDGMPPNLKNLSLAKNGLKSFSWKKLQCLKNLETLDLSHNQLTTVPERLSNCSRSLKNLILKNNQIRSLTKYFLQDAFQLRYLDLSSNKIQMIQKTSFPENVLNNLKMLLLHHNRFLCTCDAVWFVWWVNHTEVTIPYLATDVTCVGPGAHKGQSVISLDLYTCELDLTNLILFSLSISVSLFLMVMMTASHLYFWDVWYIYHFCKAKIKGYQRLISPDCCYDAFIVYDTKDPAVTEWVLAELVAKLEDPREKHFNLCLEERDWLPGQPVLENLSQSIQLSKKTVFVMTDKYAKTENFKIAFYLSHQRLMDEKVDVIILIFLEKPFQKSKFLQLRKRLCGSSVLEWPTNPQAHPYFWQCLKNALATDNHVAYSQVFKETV
Put plainly: Agonist activity at TLR7 in human U2OS cells. The format is cell-based.

For data set [4], the target named is T1, Toll-like receptor 7 (Macaca fascicularis). The experiment in a line: In vivo target occupancy at TLR7 in cynomolgus monkey assessed as fold increase in CCL8 mRNA expression in nasal scrape at 30 ng/kg administered intranasally incubated for 24 hrs by TaqMan analysis (reference value: 1). The format is functional.
The nature of data set [5]: Solubility of the compound at pH-7. The format is physicochemical.
For data set [6], the target named is T1, Toll-like receptor 7 (Macaca fascicularis). The experiment in a line: In vivo target occupancy at TLR7 in cynomolgus monkey assessed as fold increase in CCL8 mRNA expression in nasal scrape at 3 ng/kg administered intranasally incubated for 24 hrs by TaqMan analysis (reference value: 1). The data set is classed as functional.

As for `CCC[C@H](C)Oc1nc(N)c2[nH]c(=O)n(CCCCCN3CCCCC3)c2n1` [GSK-2245035], the fold change (FC) in data set [1] came out at 38.9; in data set [4] it was 19300; in data set [6] it was 3970. In addition, the Activity entry in data set [2] is recorded as “Non-Toxic”. Besides, the Selectivity ratio in data set [3] turned out to be 10. The EC50 on Toll-like receptor 7 was 2 µM. This compound also showed a solubility in data set [5] of 11 mg/mL (≈ 28.2 mM).
